This is an account of results in ChEMBL document CHEMBL4382293, “Triazolopyrimidines and Imidazopyridines: Structure-Activity Relationships and in Vivo Efficacy for Trypanosomiasis” (ACS Med Chem Lett, 2019).

Common to all, as to format: ADME, organism-based
The nature of data set [1]: Cmax in Swiss Webster mouse at 50 mg/kg, po administered as single dose via gavage by LC/MS analysis. Set-up: dose 50 mg/kg, route oral. As to conditions: in vivo.
A short description of data set [2]: AUC in Swiss Webster mouse at 50 mg/kg, po administered as single dose via gavage by LC/MS analysis. As to conditions: in vivo.
A short description of data set [3]: Ratio of drug level in brain to plasma in Swiss Webster mouse at 5 mg/kg, ip measured after 1 hr by LC/MS analysis. As to conditions: for Kp at 1 h: Swiss Webster, brain/plasma, read-out: BPR.
A short description of data set [4]: Volume of distribution at steady state in Swiss Webster mouse at […], iv administered as single dose by LC/MS analysis. As to conditions: in vivo, read-out: Vdss.
Data set [5] is described as follows: Oral bioavailability in Swiss Webster mouse at 50 mg/kg administered as single dose via gavage by LC/MS analysis. As to conditions: in vivo.
Data set [6] is described as follows: Drug level in Swiss Webster mouse plasma at 5 mg/kg, ip measured after 1 hr by LC/MS analysis.
The nature of data set [7]: Drug level in Swiss Webster mouse brain at 5 mg/kg, ip measured after 1 hr by LC/MS analysis. As to conditions: read-out: Drug uptake.

As a reminder, the Cmax is the highest concentration seen after dosing. The AUC is concentration integrated over time. A high value points to high exposure. The molecule `O=C(Nc1ccc(F)c(-c2nc3ncc(-c4cc(F)cc(F)c4)cc3[nH]2)c1)N1CCCC1` showed a Cmax in data set [1] of 4.8 µM. Further, in data set [2], the AUC stood at 1290 µM·min.
`O=C(Nc1ccc(F)c(-c2nc3ncc(-c4ccc(F)c(F)c4)cc3[nH]2)c1)N1CCCC1`: the highest level in data set [1] (Cmax) was 6.67 µM. The AUC in data set [2] came to 1650 µM·min. In data set [3], the Kp at 1 h was determined as 0.02.
On the same counts, the results for `O=C(Nc1ccc(F)c(-c2nc3ncc(-c4ccc(F)cc4F)cc3[nH]2)c1)N1CCCC1` are 9.5 µM, 2140 µM·min and 0.01.
In turn, `Cc1nc(C)c(C(=O)Nc2ccc(F)c(-c3nc4ncc(-c5ccccn5)cn4n3)c2)o1` displayed a Cmax in data set [1] of 54.4 µM. The same molecule returned an AUC in data set [2] of 45900 µM·min. For the same molecule, the Kp at 1 h in data set [3] was found to be 0.12.
Molecule `O=C(Nc1ccc(F)c(-c2nc3ncc(-c4cccc(F)c4F)cc3[nH]2)c1)N1CCCC1` gave a Cmax in data set [1] of 1.83 µM. This molecule returned an AUC in data set [2] of 651 µM·min.
As for `O=C(Nc1ccc(F)c(-c2nc3ncc(-c4cccnc4F)cc3[nH]2)c1)N1CCCC1`, the Cmax in data set [1] amounted to 25.6 µM. Besides, in data set [2], the AUC came to 4410 µM·min.
In turn, `O=C(Nc1ccc(F)c(-c2nc3ncc(-c4cc(F)ccc4F)cc3[nH]2)c1)N1CCCC1` showed a Cmax in data set [1] of 2.8 µM. The molecule further had an AUC in data set [2] of 771 µM·min.
Consider `O=C(Nc1ccc(F)c(-c2nc3ncc(-c4ccccc4F)cc3[nH]2)c1)N1CCCC1`, for which, in data set [1], the Cmax is 2.23 µM. In data set [2], this molecule gave an AUC of 696 µM·min. Moreover, the Kp at 1 h in data set [3] came to 0.02.
In turn, `O=C(Nc1ccc(F)c(-c2nc3ncc(-c4ccc(O)cc4)cc3[nH]2)c1)N1CCCC1` gave a Cmax in data set [1] of 0.13 µM. The AUC in data set [2] worked out at 19.7 µM·min.
The like results for `O=C(Nc1ccc(F)c(-c2nc3ncc(-c4cccc(F)c4)cc3[nH]2)c1)N1CCCC1` were, in that order, 7 µM and 2150 µM·min.
On the same counts, the results for `O=C(Nc1ccc(F)c(-c2nc3ncc(-c4cncc(F)c4)cc3[nH]2)c1)N1CCCC1` are 1.07 µM and 222 µM·min.
The molecule `O=C(Nc1ccc(F)c(-c2nc3cc(-c4ccccc4)cnc3[nH]2)c1)N1CCCC1` came in with an area under the curve (AUC) in data set [2] of 1240 µM·min. For the same molecule, the BPR in data set [3] (brain, 1 h) stood at 0.04.
One may read the bioavailability as dose-corrected exposure relative to a reference, in per cent. A high value points to good availability. `Cc1nc(C)c(C(=O)Nc2ccc(F)c(-c3nc4ncc(-c5ccccc5Cl)cn4n3)c2)o1` came in with a Cmax in data set [1] of 39.3 µM. This molecule displayed an AUC in data set [2] of 40000 µM·min. Also, in data set [4], the Vd fell in the range of 0.7 to 1.1 L/kg. For the same molecule, in data set [5], the bioavailability worked out at 70%. The Kp at 1 h in data set [3] was 0.23. The concentration at 1 h in data set [6] is 8.8 µM; in data set [7] it was 1900 nM.
`O=C(Nc1ccc(F)c(-c2nc3ncc(-c4ccc(F)cc4)cc3[nH]2)c1)N1CCCC1`: the Cmax in data set [1] was determined as 6.27 µM. The molecule also gave an AUC in data set [2] of 1460 µM·min. Further, the Kp at 1 h in data set [3] came to 0.04.
In the case of `O=C(Nc1ccc(F)c(-c2nc3ncc(C(F)(F)F)cc3[nH]2)c1)N1CCCC1`, the Cmax in data set [1] amounted to 1.08 µM. In data set [2], this molecule gave an AUC of 74.6 µM·min. Further, the Kp at 1 h in data set [3] amounted to 0.08.
As to `O=C(Nc1ccc(F)c(-c2nc3ncc(-c4ccccn4)cn3n2)c1)N1CCC(F)(F)C1`, the Cmax in data set [1] stood at 31.1 µM. For the same molecule, the AUC in data set [2] was 15700 µM·min. The Vd in data set [4] is 0.7 to 1.1 L/kg. This molecule gave a bioavailability in data set [5] of 70%. Also, in data set [3], the Kp at 1 h was determined as 0.02.
